The target of this test is T1, GPR84 (Homo sapiens, UniProt Q9NQS5).
T1 construct: expressed in transfected cells
The test is described as follows: GPR84 [35S]GTPγS binding assay, HEPES buffer. The format is biochemical. The settings on record: 3,3′ di indolylmethane at EC80, membranes from stable cell line over expressing GPR84. In a few lines:
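Membranes from a stable GPR84-overexpressing cell line (20 μg/well), pre-incubated with 0.1 μM GDP for 15 min at 4° C, mixed with 0.1 nM [35S]GTPγS and WGA SpA beads in 20 mM HEPES pH 7.4, 5 mM MgCl2, 250 mM NaCl, 0.05% BSA, 75 ug/mL saponin. Incubated 90 min at room temperature; scintillation proximity read after centrifugation.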
(Binding of GTPγS marks nucleotide exchange on a G protein.)

This is an account of results in patent US9708312B2, “Dihydropyrimidinoisoquinolinones and pharmaceutical compositions thereof for the treatment of inflammatory disorders (GPR84 antagonists)” (GALAPAGOS NV, priority 2012, dated 2017).

T1 sequence (Q9NQS5 whole entry): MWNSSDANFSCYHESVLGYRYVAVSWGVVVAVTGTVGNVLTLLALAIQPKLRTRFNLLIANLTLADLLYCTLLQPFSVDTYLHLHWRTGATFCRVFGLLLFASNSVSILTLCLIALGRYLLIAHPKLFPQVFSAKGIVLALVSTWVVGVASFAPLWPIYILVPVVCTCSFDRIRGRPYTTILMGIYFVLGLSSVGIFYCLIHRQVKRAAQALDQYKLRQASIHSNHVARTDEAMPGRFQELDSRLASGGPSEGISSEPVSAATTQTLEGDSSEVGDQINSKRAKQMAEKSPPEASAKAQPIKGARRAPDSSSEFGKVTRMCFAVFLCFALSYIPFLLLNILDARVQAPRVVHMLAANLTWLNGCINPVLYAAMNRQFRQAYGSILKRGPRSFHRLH

Consider `CC(C)CC(O)C#Cc1ccc2c(c1)CCn1c-2cc(OCC2COc3ncccc3O2)nc1=O` (stereo not drawn) [compound 185, 2-(2,3-dihydro-[1,4]dioxino[2,3-b]pyridin-2-ylmethoxy)-9-(3-hydroxy-5-methyl-hex-1-ynyl)-6,7-dihydro-pyrimido[6,1-a]isoquinolin-4-one], for which the IC50 (commonly the concentration that inhibits the measured activity by half) is 0.01 to 100 nM. The figure for `CCC(O)(C#Cc1ccc2c(c1)CCn1c-2cc(OCC2COc3ncccc3O2)nc1=O)CC` (stereo not drawn) [compound 186, 2-(2,3-dihydro-[1,4]dioxino[2,3-b]pyridin-2-ylmethoxy)-9-(3-ethyl-3-hydroxy-pent-1-ynyl)-6,7-dihydro-pyrimido[6,1-a]isoquinolin-4-one] is 0.01 to 100 nM. In turn, `CC(O)(C#Cc1ccc2c(c1)CCn1c-2cc(OCC2COc3ncccc3O2)nc1=O)c1ccccc1` (stereo not drawn) [compound 187, 2-(2,3-Dihydro-[1,4]dioxino[2,3-b]pyridin-2-ylmethoxy)-9-(3-hydroxy-3-phenyl-but-1-ynyl)-6,7-dihydro-pyrimido[6,1-a]isoquinolin-4-one] gave an IC50 of 0.01 to 100 nM. Then `CCCCNCC#Cc1ccc2c(c1)CCn1c-2cc(OCC2COc3ncccc3O2)nc1=O` (stereo not drawn) [compound 191, 9-(3-butylamino-prop-1-ynyl)-2-(2,3-dihydro-[1,4]dioxino[2,3-b]pyridin-2-ylmethoxy)-6,7-dihydro-pyrimido[6,1-a]isoquinolin-4-one], with 100 to 500 nM; and `O=c1nc(OCC2COc3ncccc3O2)cc2n1CCc1cc(C#CCNc3ccccc3)ccc1-2` (stereo not drawn) [compound 194, 2-(2,3-dihydro-[1,4]dioxino[2,3-b]pyridin-2-ylmethoxy)-9-(3-phenylamino-prop-1-ynyl)-6,7-dihydro-pyrimido[6,1-a]isoquinolin-4-one], with 0.01 to 100 nM; and `O=C(NC1CCOCC1)c1ccc2c(c1)CCn1c-2cc(OCC2COc3ncccc3O2)nc1=O` (stereo not drawn) [compound 195, 2-(2,3-dihydro-[1,4]dioxino[2,3-b]pyridin-2-ylmethoxy)-4-oxo-6,7-dihydro-4H-pyrimido[6,1-a]isoquinoline-9-carboxylic acid (tetrahydro-pyran-4-yl)-amide], with 100 to 500 nM. For `O=c1nc(OCC2COc3ncccc3O2)cc2n1CCc1cc(CN3CCCC3)ccc1-2` (stereo not drawn) [compound 197, 2-(2,3-dihydro-[1,4]dioxino[2,3-b]pyridin-2-ylmethoxy)-9-pyrrolidin-1-ylmethyl-6,7-dihydro-pyrimido[6,1-a]isoquinolin-4-one], the IC50 is 100 to 500 nM. Turning to `CCNC1(C#Cc2ccc3c(c2)CCn2c-3cc(OCC3COc4ncccc4O3)nc2=O)COC1` (stereo not drawn) [compound 201, 2-(2,3-dihydro-[1,4]dioxino[2,3-b]pyridin-2-ylmethoxy)-9-(3-ethylamino-oxetan-3-ylethynyl)-6,7-dihydro-pyrimido[6,1-a]isoquinolin-4-one], the IC50 lay in the range of 100 to 500 nM. For `CC(C)C1CC(COc2cc3n(c(=O)n2)CCc2cc(C#CC4CC4)ccc2-3)O1` (stereo not drawn) [compound 203, 9-cyclopropylethynyl-2-(4-isopropyl-oxetan-2-ylmethoxy)-6,7-dihydro-pyrimido[6,1-a]isoquinolin-4-one], the IC50 fell in the range of 500 to 1000 nM.
